Results as given in patent US11827628B2, “Compositions and methods for inhibition of the JAK pathway” (Rigel Pharmaceuticals, Inc., priority 2005, dated 2023).
Where a name gives a salt, the structure may show the parent alone.

tested on: Primary human T-cells; assay: Primary Human T-Cell Proliferation Assay Stimulated with IL-2 (CellTiter-Glo); format: cell-based; conditions: Homo sapiens, T-cell, primary human T-cell proliferation stimulated with IL-2; read-out: IC50, Example 42
In short: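 IC50 derived from CellTiter-Glo ATP signal after 72 hours of IL-2-driven proliferation at 37° C. Cells: primary human T-cells from blood, stimulated beforehand 3-4 days on anti-CD3/anti-CD28 with IL-2, then rested from IL-2 before compound exposure in duplicate; IL-2-free wells served as unstimulated control.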

Point of comparison: Cc1cnc(Nc2ccc(S(N)(=O)=O)cc2)nc1Nc1ccc(OCC(=O)N(C)C)c(Cl)c1 [Compound I-134, N2-(4-Aminosulfonylphenyl)-N4-(3-chloro-4-dimethylaminocarbonylmethoxyphenyl)-5-methyl-2,4-pyrimidinediamine], IC50 510 nM. Against it:
- Cc1cnc(Nc2ccc(S(N)(=O)=O)cc2)nc1Nc1ccc(OCC(=O)N(C)C)c(F)c1 [Compound I-137, N2-(4-Aminosulfonylphenyl)-N4-(4-dimethylaminocarbonylmethoxy-3-fluorophenyl)-5-methyl-2,4-pyrimidinediamine] — 2.2-fold higher, 1100 nM
- COc1ccc(Nc2ncc(F)c(Nc3ccc(OCC#N)cc3)n2)cc1S(N)(=O)=O [Compound I-56, N2-(3-Aminosulfonyl-4-methoxyphenyl)-N4-(4-cyanomethoxyphenyl)-5-fluoro-2,4-pyrimidinediamine] — 1.9-fold lower, 262 nM
- CNC(=O)COc1ccc(Nc2nc(Nc3ccc(S(N)(=O)=O)cc3)ncc2C)cc1Cl [Compound I-149, N2-(4-Aminosulfonylphenyl)-N4-(3-chloro-4-methylaminocarbonylmethoxyphenyl)-5-methyl-2,4-pyrimidinediamine] — 2.6-fold lower, 197 nM
- Cc1ccc(Nc2ncc(F)c(Nc3ccc(Oc4cccnc4)cc3)n2)cc1S(N)(=O)=O [II-12, N2-(3-Aminosulfonyl-4-methylphenyl)-5-fluoro-N4-[4-(3-pyridyloxy)phenyl]-2,4-pyrimidinediamine] — within 1.5-fold, 409 nM
- Cc1cnc(Nc2cccc(S(N)(=O)=O)c2)nc1Nc1ccc(OCC(=O)N(C)C)c(F)c1 [Compound I-138, N2-(3-Aminosulfonylphenyl)-N4-(4-dimethylaminocarbonylmethoxy-3-fluorophenyl)-5-methyl-2,4-pyrimidinediamine] — 2.3-fold lower, 223 nM
- Cc1ccc(Nc2ncc(F)c(Nc3ccc(CCC#N)c(F)c3)n2)cc1S(N)(=O)=O [III-17, N2-(3-Aminosulfonyl-4-methylphenyl)-5-fluoro-N4-[4-(2-cyanoethyl)-3-fluorophenyl]-2,4-pyrimidinediamine] — 2.6-fold lower, 197 nM
- Cc1cc(Nc2nc(Nc3ccc(C)c(S(N)(=O)=O)c3)ncc2F)ccc1CCC#N [III-19, N2-(3-Aminosulfonyl-4-methylphenyl)-N4-[4-(2-cyanoethyl)-3-methylphenyl]-5-fluoro-2,4-pyrimidinediamine] — 2.9-fold lower, 174 nM
- Cc1ccc(Nc2ncc(C)c(Nc3ccc(OCC#N)cc3)n2)cc1S(N)(=O)=O [Compound I-59, N2-(3-Aminosulfonyl-4-methylphenyl)-N4-(4-cyanomethoxyphenyl)-5-methyl-2,4-pyrimidinediamine] — 20-fold lower, 24.9 nM
- Cc1ccc(Nc2ncc(F)c(Nc3ccc(OC4CCN(C)CC4)c(C(F)(F)F)c3)n2)cc1S(N)(=O)=O [II-6, N2-(3-Aminosulfonyl-4-methylphenyl)-5-fluoro-N4-{4-[(1-methylpiperidin-4-yl)oxy]-3-trifluoromethylphenyl}-2,4-pyrimidinediamine] — 2.4-fold higher, 1220 nM
- CNC(=O)COc1ccc(Nc2nc(Nc3ccc(C)c(S(N)(=O)=O)c3)ncc2C)cc1F [Compound I-156, N2-(3-Aminosulfonyl-4-methylphenyl)-N4-(3-fluoro-4-methylaminocarbonylmethoxyphenyl)-5-methyl-2,4-pyrimidinediamine] — 3.6-fold lower, 142 nM
- C=CCNC(=O)COc1ccc(Nc2nc(Nc3ccc(C)c(S(N)(=O)=O)c3)ncc2F)cc1 [Compound I-159, N4-(4-Allylaminocarbonylmethoxyphenyl)-N2-(3-aminosulfonyl-4-methylphenyl)-5-fluoro-2,4-pyrimidinediamine] — within 1.5-fold, 539 nM
- NS(=O)(=O)c1ccc(Nc2ncc(F)c(Nc3ccc(OCCN4CCOCC4)cc3)n2)cc1 [Compound I-205, N2-(4-Aminosulfonylphenyl)-5-fluoro-N4-[4-(2-morpholinoethyloxy)phenyl)-2,4-pyrimidinediamine] — 3.6-fold higher, 1860 nM
- Cc1cnc(Nc2ccc(Cl)c(S(N)(=O)=O)c2)nc1Nc1ccc(CCC#N)cc1 [III-12, N2-(3-Aminosulfonyl-4-chlorophenyl)-N4-[4-(2-cyanoethyl)phenyl]-5-methyl-2,4-pyrimidinediamine] — 4.8-fold lower, 107 nM
- NS(=O)(=O)c1cccc(Nc2ncc(F)c(Nc3ccc(Oc4cccnc4)cc3)n2)c1 [II-11, N2-(3-Aminosulfonylphenyl)-5-fluoro-N4-[4-(3-pyridyloxy)phenyl]-2,4-pyrimidinediamine] — 2.6-fold lower, 198 nM
- Cc1ccc(Nc2ncc(C)c(Nc3ccc(OCC(N)=O)cc3)n2)cc1S(N)(=O)=O [Compound I-110, N4-(4-Aminocarbonylmethoxyphenyl)-N2-(3-aminosulfonyl-4-methylphenyl)-5-methyl-2,4-pyrimidinediamine] — 2-fold lower, 253 nM
- Cc1ccc(Nc2nc(Nc3ccc(C)c(S(N)(=O)=O)c3)ncc2F)cc1OCCN1CCOCC1 [Compound I-204, N2-(3-Aminosulfonyl-4-methylphenyl)-5-fluoro-N4-[4-methyl-3-(2-morpholinoethyloxy)phenyl]2,4-pyrimidinediamine] — 3.2-fold higher, 1650 nM
- Cc1cnc(Nc2cccc(S(N)(=O)=O)c2)nc1Nc1ccc(OCC(=O)N(C)C)c(Cl)c1 [Compound I-135, N2-(3-Aminosulfonylphenyl)-N4-(3-chloro-4-dimethylaminocarbonylmethoxyphenyl)-5-methyl-2,4-pyrimidinediamine] — 4.9-fold lower, 104 nM
- Cc1ccc(Nc2ncc(F)c(NCCc3ccc(-c4ccncc4)cc3)n2)cc1S(N)(=O)=O [III-77, N2-(3-Aminosulfonyl-4-methylphenyl)-5-fluoro-N4-[4-(4-pyridinyl)phenethyl]-2,4-pyrimidinediamine] — 2.4-fold lower, 210 nM
- Cc1ccc(Nc2ncc(C)c(Nc3ccc(OCC(=O)N(C)C)c(F)c3)n2)cc1S(N)(=O)=O [Compound I-139, N2-(3-Aminosulfonyl-4-methylphenyl)-N4-(4-dimethylaminocarbonylmethoxy-3-fluorophenyl)-5-methyl-2,4-pyrimidinediamine] — 2.1-fold lower, 240 nM
- CNC(=O)OCCc1ccc(Nc2nc(Nc3cccc(S(N)(=O)=O)c3)ncc2F)cc1 [III-60, N2-(3-Aminosulfonylphenyl)-5-fluoro-N4-{4-[2-(methylaminocarbonyloxy)ethyl]phenyl}-2,4-pyrimidinediamine] — 2.9-fold lower, 178 nM
- C=CCNC(=O)COc1ccc(Nc2nc(Nc3cccc(S(N)(=O)=O)c3)ncc2F)cc1 [Compound I-158, N4-(4-Allylaminocarbonylmethoxyphenyl)-N2-(3-aminosulfonylphenyl)-5-fluoro-2,4-pyrimidinediamine] — within 1.5-fold, 445 nM
- CNC(=O)COc1ccc(Nc2nc(Nc3cccc(S(N)(=O)=O)c3)ncc2C)cc1Cl [Compound I-150, N2-(3-Aminosulfonylphenyl)-N4-(3-chloro-4-methylaminocarbonylmethoxyphenyl)-5-methyl-2,4-pyrimidinediamine] — 7.5-fold lower, 68.1 nM
- Cc1ccc(Nc2ncc(F)c(Nc3ccc(OCc4cccnc4)cc3)n2)cc1S(N)(=O)=O [Compound I-178, N2-(3-Aminosulfonyl-4-methylphenyl)-5-fluoro-N4-[4-(3-pyridylmethoxy)phenyl]-2,4-pyrimidinediamine] — 17-fold lower, 29.3 nM
- Cc1cnc(Nc2cccc(S(N)(=O)=O)c2)nc1Nc1ccc(OCC(N)=O)cc1 [Compound I-109, N4-(4-Aminocarbonylmethoxyphenyl)-N2-(3-aminosulfonylphenyl)-5-methyl-2,4-pyrimidinediamine] — 2.5-fold lower, 203 nM

same assay, conditions: Homo sapiens, T-cell, primary human T-cells stimulated with IL-2, proliferation; read-out: IC50, Example 42

Point of comparison: COC(=O)c1ccc(Nc2nc(Nc3ccc(F)c(S(N)(=O)=O)c3)ncc2F)s1 [IX-48, N2-(3-Aminosulfonyl-4-fluorophenyl)-5-fluoro-N4-(5-methoxycarbonyl-thiophene-2-yl)-2,4-pyrimidinediamine], IC50 2620 nM. Against it:
- Cc1cc2ccc(CNc3nc(Nc4cccc(S(N)(=O)=O)c4)ncc3F)cc2[nH]1 [Compound X-3] — 2.4-fold lower, 1090 nM

same assay, conditions: primary human T-cells stimulated with IL-2, proliferation; read-out: IC50, Example 42

Point of comparison: Cc1ccc(Nc2ncc(F)c(Nc3cnc4c(c3)OC(C)(C)C(=O)N4CC#N)n2)cc1S(N)(=O)=O [Compound V-14, N2-(3-Aminosulfonyl-4-methylphenyl)-N4-[2,2-dimethyl-3-oxo-4-cyanomethyl-5-pyrid[1,4]oxazin-7-yl]-5-fluoro-2,4-pyrimidinediamine], IC50 2590 nM. Against it:
- COc1ccc(Nc2ncc(F)c(Nc3ccc(CN4CCSCC4)cc3)n2)cc1S(N)(=O)=O [III-109, N2-(3-Aminosulfonyl-4-methyoxyphenyl)-5-fluoro-N4-(4-thiomorpholinomethylenephenyl)-2,4-pyrimidinediamine] — 10-fold lower, 252 nM
- COc1ccc(CN2C(=O)C(C)Oc3ccc(Nc4nc(Nc5ccc(S(N)(=O)=O)cc5)ncc4F)cc32)cc1 (racemic) [Compound V-4, Racemic N2-(4-Aminosulphonylphenyl)-5-fluoro-N4-[2-methyl-3-oxo-4-(4-methoxybenzyl)-benz[1,4]oxazin-6-yl]-2,4-pyrimidinediamine] — 1.7-fold lower, 1540 nM
- NS(=O)(=O)c1cccc(Nc2ncc(F)c(Nc3ccc(CN4CCS(=O)(=O)CC4)cc3)n2)c1 [III-110, N2-(3-Aminosulfonylphenyl)-5-fluoro-N4-{4-[(1,1-dioxothiomorpholin-4-yl-)methyl]phenyl}-2,4-pyrimidinediamine] — 2.6-fold lower, 998 nM
- NS(=O)(=O)c1cccc(Nc2ncc(F)c(Nc3ccc(CN4CCOCC4)cc3)n2)c1 [III-103, N2-(3-Aminosulfonylphenyl)-5-fluoro-N4-(4-N-morpholinomethylenephenyl)-2,4-pyrimidinediamine] — 2.4-fold lower, 1060 nM
- COc1ccc(Nc2nc(Nc3cccc(S(=O)(=O)NN4CCC(C)CC4)c3)ncc2F)cc1Cl [VI-9, N4-(3-Chloro-4-methoxyphenyl)-5-fluoro-N2-[3-(4-methylpipendin-1-yl)aminosulfonylphenyl]-2,4-pyrimidinediamine] — 2.7-fold lower, 945 nM
- NS(=O)(=O)c1cccc(Nc2ncc(F)c(Nc3ccc(Cc4ccncc4)cc3)n2)c1 [III-129, N2-(3-Aminosulfonylphenyl)-5-fluoro-N4-[4-(4-pyridylmethyl)phenyl]-2,4-pyrimidinediamine Methanesulfonic Acid Salt] — 14-fold lower, 180 nM
